Measured values from patent US10669272B2, “Substituted naphthyridinone compounds useful as T cell activators” (BRISTOL-MYERS SQUIBB COMPANY, priority 2018, dated 2020).

Experiments:
human DGKζ = target: T1, human DGKζ (Homo sapiens, UniProt Q13574); assay: DGKζ LIPGLO assay (extruded liposome substrate), in vitro DGK inhibition; type: biochemical; settings: liposome (LIPGLO) assay; read-out: DGKz LIPGLO IC50
T1 construct: TVMV protease cleavage site (C); Hexa-His (C); made in house; host or cells: Sf9 insect cells (baculovirus, Bac-to-Bac)
T1 sequence (Q13574 with tags, fused parts or gaps isoform Q13574-4): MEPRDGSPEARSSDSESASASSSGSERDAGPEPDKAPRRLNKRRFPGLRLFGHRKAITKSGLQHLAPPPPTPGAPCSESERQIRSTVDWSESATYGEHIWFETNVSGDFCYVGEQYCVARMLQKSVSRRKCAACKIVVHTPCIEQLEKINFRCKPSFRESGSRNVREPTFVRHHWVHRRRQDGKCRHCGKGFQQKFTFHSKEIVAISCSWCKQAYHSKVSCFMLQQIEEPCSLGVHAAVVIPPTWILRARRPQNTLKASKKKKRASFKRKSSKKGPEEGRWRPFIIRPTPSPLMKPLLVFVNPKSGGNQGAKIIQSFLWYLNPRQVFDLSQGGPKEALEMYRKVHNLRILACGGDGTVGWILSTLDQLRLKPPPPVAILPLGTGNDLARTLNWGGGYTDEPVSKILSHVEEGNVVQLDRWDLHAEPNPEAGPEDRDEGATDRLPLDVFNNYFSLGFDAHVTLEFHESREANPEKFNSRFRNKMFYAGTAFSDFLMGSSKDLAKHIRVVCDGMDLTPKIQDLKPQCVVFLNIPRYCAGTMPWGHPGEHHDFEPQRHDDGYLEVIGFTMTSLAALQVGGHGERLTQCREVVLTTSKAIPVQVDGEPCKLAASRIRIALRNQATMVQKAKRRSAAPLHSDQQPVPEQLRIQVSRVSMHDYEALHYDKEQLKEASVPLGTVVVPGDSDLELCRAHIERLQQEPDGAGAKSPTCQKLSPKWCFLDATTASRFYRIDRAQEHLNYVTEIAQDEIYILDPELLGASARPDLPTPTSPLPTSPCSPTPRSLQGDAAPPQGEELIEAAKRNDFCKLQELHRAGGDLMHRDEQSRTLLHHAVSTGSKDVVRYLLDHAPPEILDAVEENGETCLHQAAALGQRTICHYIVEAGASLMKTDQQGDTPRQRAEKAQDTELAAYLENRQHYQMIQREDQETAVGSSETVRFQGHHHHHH

human DGKα = target: T2, human DGKα (Homo sapiens, UniProt P23743); assay: DGKα LIPGLO assay (extruded liposome substrate), in vitro DGK inhibition; type: biochemical; settings: liposome (LIPGLO) assay; read-out: DGKa LIPGLO IC50
T2 construct: TVMV protease cleavage site (C); Hexa-His (C); made in house; host or cells: Sf9 insect cells (baculovirus, Bac-to-Bac)
T2 sequence (P23743 with tags, fused parts or gaps): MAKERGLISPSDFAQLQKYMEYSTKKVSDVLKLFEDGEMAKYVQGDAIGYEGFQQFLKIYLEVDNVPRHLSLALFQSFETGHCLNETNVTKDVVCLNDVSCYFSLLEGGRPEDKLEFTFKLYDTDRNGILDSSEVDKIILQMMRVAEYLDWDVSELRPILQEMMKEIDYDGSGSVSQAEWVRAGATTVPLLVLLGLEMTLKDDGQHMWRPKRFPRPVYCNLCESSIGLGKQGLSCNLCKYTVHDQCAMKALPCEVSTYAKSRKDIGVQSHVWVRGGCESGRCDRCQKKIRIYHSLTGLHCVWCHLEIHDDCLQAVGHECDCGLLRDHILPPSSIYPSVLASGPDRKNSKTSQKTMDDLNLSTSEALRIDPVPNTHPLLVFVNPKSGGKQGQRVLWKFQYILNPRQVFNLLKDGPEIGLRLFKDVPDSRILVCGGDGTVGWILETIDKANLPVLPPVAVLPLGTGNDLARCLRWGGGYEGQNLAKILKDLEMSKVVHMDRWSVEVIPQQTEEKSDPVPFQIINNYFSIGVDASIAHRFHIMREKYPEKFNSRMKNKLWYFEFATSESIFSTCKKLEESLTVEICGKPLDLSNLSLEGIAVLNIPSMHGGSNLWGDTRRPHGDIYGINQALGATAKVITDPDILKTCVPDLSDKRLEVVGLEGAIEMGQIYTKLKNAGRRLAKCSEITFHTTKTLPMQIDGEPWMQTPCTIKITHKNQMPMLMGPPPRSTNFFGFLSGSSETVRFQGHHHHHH

SMILES | IC50 (human DGKζ) [nM] | IC50 (human DGKα) [nM]
CC(c1ccc(OC(F)(F)F)cc1)N1C[C@@H](C)N(c2cc(=O)n(C)c3ccc(C#N)nc23)C[C@@H]1CO (single isomer, unassigned) [Example 1181] | 2500 | 77000
Cn1c(=O)cc(N2CCN(Cc3ccc(F)cc3Cl)C(COC(F)F)C2)c2nc(C#N)ccc21 (single isomer, unassigned) [Example 1184, 8-(4-(2-chloro-4-fluorobenzyl)-3-((difluoromethoxy)methyl)piperazin-1-yl)-5-methyl-6-oxo-5,6-dihydro-1,5-naphthyridine-2-carbonitrile] | 11000 | 110000
Cn1c(=O)cc(N2CCN(C(c3ccc(F)cc3)c3ccc(F)cc3)C(COC(F)F)C2)c2nc(C#N)ccc21 (single isomer, unassigned) [Example 1186] | 30000 | > 250000
Cn1c(=O)cc(N2CCN(C(c3ccc(F)cc3)c3ccc(F)cc3)C(COC(F)F)C2)c2nc(C#N)ccc21 (single isomer, unassigned) [Example 1187] | 2900 | 150000
C[C@@H]1CN(c2cc(=O)n(C)c3ccc(C#N)nc23)[C@@H](C)CN1C(COC(F)F)c1ccc(F)cc1 (single isomer, unassigned) [Example 1188] | 780 | 29
CC(c1cc(OC(F)F)ccc1F)N1C[C@H](C)N(c2cc(=O)n(C)c3ccc(C#N)nc23)C[C@H]1C (single isomer, unassigned) [Example 1228] | 3000 | 5400
CC(c1cc(F)c(F)c(F)c1)N1C[C@H](C)N(c2cc(=O)n(C)c3ccc(C#N)nc23)C[C@H]1C (single isomer, unassigned) [Example 1240] | 150 | 3500
CC(c1cc(F)c(F)c(F)c1)N1C[C@H](C)N(c2cc(=O)n(C)c3ccc(C#N)nc23)C[C@H]1C (single isomer, unassigned) [Example 1241] | 600 | 3800
Cc1nc2c(C(C)N3C[C@H](C)N(c4cc(=O)n(C)c5ccc(C#N)nc45)C[C@H]3C)cccc2o1 (single isomer, unassigned) [Example 1260] | 86 | 54000
Cc1nc2c(C(C)N3C[C@H](C)N(c4cc(=O)n(C)c5ccc(C#N)nc45)C[C@H]3C)cccc2o1 (single isomer, unassigned) [Example 1261] | 1100 | 4200
Cc1nc2ccc(C(C)N3C[C@H](C)N(c4cc(=O)n(C)c5ccc(C#N)nc45)C[C@H]3C)cc2s1 (single isomer, unassigned) [Example 1263] | 150 | 950
Cc1nc2ccc(C(C)N3C[C@H](C)N(c4cc(=O)n(C)c5ccc(C#N)nc45)C[C@H]3C)cc2s1 (single isomer, unassigned) [Example 1264] | 3600 | 10000
CC(c1cccc(OC(F)F)c1)N1C[C@H](C)N(c2cc(=O)n(C)c3ccc(C#N)nc23)C[C@H]1C (single isomer, unassigned) [Example 1271] | 30 | 150
CC(c1cccc(OC(F)F)c1)N1C[C@H](C)N(c2cc(=O)n(C)c3ccc(C#N)nc23)C[C@H]1C (single isomer, unassigned) [Example 1272] | 660 | 5000
C[C@@H]1CN(c2cc(=O)n(C)c3ccc(C#N)nc23)[C@@H](C)CN1C(c1ccc(F)cc1)c1ccc(P(C)(C)=O)cc1 (single isomer, unassigned) [Example 1293] | 6100 | 100000
CC(c1ccc(P(C)(C)=O)cc1)N1C[C@H](C)N(c2c(C#N)c(=O)n(C)c3ccc(C#N)nc23)C[C@H]1C (single isomer, unassigned) [Example 1295] | 47000 | 130000
C[C@@H]1CN(c2cc(=O)n(C)c3ccc(C#N)nc23)[C@@H](C)CN1C(c1ccc(F)cc1)C1CCS(=O)(=O)CC1 (single isomer, unassigned) [Example 1301] | 3600 | 91000
CSCC(c1ccc(F)cc1)N1C[C@H](C)N(c2cc(=O)n(C)c3ccc(C#N)nc23)C[C@H]1C (single isomer, unassigned) [Example 1319] | 610 | 99
CC(c1ccc(C#N)c(OCCN(C)C)c1)N1C[C@H](C)N(c2cc(=O)n(C)c3ccc(C#N)nc23)C[C@H]1C (single isomer, unassigned) [Example 1322] | 53000 | 130000
C[C@@H]1CN(C(c2ccc(F)cc2)c2ccc(F)cc2)[C@@H](C)CN1c1c(C#N)c(=O)n(C)c2ccc(Br)nc12 [Example 5, 4-((2R,5S)-4-(bis(4-fluorophenyl)methyl)-2,5-dimethylpiperazin-1-yl)-6-bromo-1-methyl-2-oxo-1,2-dihydro-1,5-naphthyridine-3-carbonitrile] | 42000 | 23000

The next lines start with the values.

IC50 (human DGKζ) [nM] | IC50 (human DGKα) [nM] | SMILES
7100 | 130000 | CC(c1ccc(C#N)c(OCCN(C)C)c1)N1C[C@H](C)N(c2cc(=O)n(C)c3ccc(C#N)nc23)C[C@H]1C (single isomer, unassigned) [Example 1323]
510 | 460 | CC[C@@H]1CN(c2cc(=O)n(C)c3ccc(C#N)nc23)[C@@H](C)CN1C(C)c1ccc(Cl)cc1F (single isomer, unassigned) [Example 1353]
20 | 120 | CC[C@H]1CN(C(C)c2ccc(C3CC3)cc2F)[C@H](CC)CN1c1cc(=O)n(C)c2ccc(C#N)nc12 (single isomer, unassigned) [Example 1357]
11 | 11 | CC[C@H]1CN(C(c2ccc(F)cc2)c2csc(C(F)(F)F)n2)[C@H](CC)CN1c1cc(=O)n(C)c2ccc(C#N)nc12 (single isomer, unassigned) [Example 1361]
50 | 160 | CC[C@H]1CN(C(c2ccc(F)cc2)c2csc(C(F)(F)F)n2)[C@H](CC)CN1c1cc(=O)n(C)c2ccc(C#N)nc12 (single isomer, unassigned) [Example 1362]
17000 | 840 | CC(c1ccc(OC(F)F)cc1)N1C[C@H](C)N(c2c(C#N)c(=O)n(C)c3ccc(C#N)nc23)C[C@H]1C (single isomer, unassigned) [Example 1376]
60 | 660 | CC[C@H]1CN(C(C)c2cc(F)c(F)c(F)c2)[C@H](C)CN1c1cc(=O)n(C)c2ccc(C#N)nc12 (single isomer, unassigned) [Example 1382]
54 | 1300 | CCOC[C@@H]1CN(c2cc(=O)n(C)c3ccc(C#N)nc23)[C@@H](C)CN1C(C)c1ccc(OC(F)(F)F)cc1 (single isomer, unassigned) [Example 1397]
1600 | 5500 | CCOC[C@@H]1CN(c2cc(=O)n(C)c3ccc(C#N)nc23)[C@@H](C)CN1C(C)c1ccc(OC(F)(F)F)cc1 (single isomer, unassigned) [Example 1398]
83 | 19 | CC[C@H]1CN(C(C)c2ccc(OC(F)(F)F)cc2)[C@H](COC)CN1c1cc(=O)n(C)c2ccc(C#N)nc12 (single isomer, unassigned) [Example 1408]
480 | 10000 | CCC(c1ccc(OC(C)(C)C)cc1)N1C[C@H](C)N(c2cc(=O)n(C)c3ccc(C#N)nc23)C[C@H]1C (single isomer, unassigned) [Example 1444]
